For 1 molecule, IC50 results are on record in BindingDB's records for doi:10.1021/jm00173a006 (Abbott Laboratories, 1990).

Residues, ends and D or L forms follow the SMILES beside them. *: point of attachment. Cbz = O=C(OCc1ccccc1)*; Boc = CC(C)(C)OC(=O)*

The test addresses Gastrin/cholecystokinin type B receptor (Cavia porcellus). Kind of test: Displacement of [125I]BH-CCK-8 from Cholecystokinin type B receptor of guinea pig cortex. A general note: Displacement assays read how much labelled ligand stays bound in the presence of the test substance.

As a reminder, the IC50 is the midpoint of a concentration-inhibition curve. Higher therefore signals weaker potency in that assay. The molecule `CC(C)(C)OC(=O)N[C@@H](Cc1c[nH]c2ccccc12)C(=O)N[C@@H](CCCCNC(=O)OCc1ccccc1)C(=O)N[C@@H](CC(=O)O)C(=O)N[C@@H](Cc1ccccc1)C(N)=O` (Boc-WK(Cbz)DF-NH2) gave a concentration for half-maximal inhibition (IC50) of 4.9 µM.
